In this assay the target is bovine cardiac myofibrils (full-length cardiac myosin ATPase in the native sarcomere) (Bos taurus (Bovine), UniProt Q9BE39). As to the kind of experiment: Skinned bovine cardiac myofibril ATPase assay (PK/LDH-coupled). It is filed as biochemical. Conditions: Ca2+ activating to 75% of maximal rate; for CDMF75 IC15: concentration giving 15% inhibition; for IC50: read-out: CDMF75 IC50. In a few lines: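 Inhibition of steady-state ATPase read at 340 nm through a PK/LDH-coupled NADH system (0.5 mM NADH, 1.5 mM PEP). Detergent-skinned bovine cardiac myofibrils, 1 mg/mL, were tested at pH 6.8 in PIPES/MgCl2 with 50 μM ATP and calcium adjusted to give pCa50 or pCa75 activation.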

The values that follow come from patent publication US12065436B2, “Cardiac sarcomere inhibitors” (Cytokinetics, Inc., priority 2018, dated 2024).

Chain of bovine cardiac myofibrils (full-length cardiac myosin ATPase in the native sarcomere) (Q9BE39 whole entry): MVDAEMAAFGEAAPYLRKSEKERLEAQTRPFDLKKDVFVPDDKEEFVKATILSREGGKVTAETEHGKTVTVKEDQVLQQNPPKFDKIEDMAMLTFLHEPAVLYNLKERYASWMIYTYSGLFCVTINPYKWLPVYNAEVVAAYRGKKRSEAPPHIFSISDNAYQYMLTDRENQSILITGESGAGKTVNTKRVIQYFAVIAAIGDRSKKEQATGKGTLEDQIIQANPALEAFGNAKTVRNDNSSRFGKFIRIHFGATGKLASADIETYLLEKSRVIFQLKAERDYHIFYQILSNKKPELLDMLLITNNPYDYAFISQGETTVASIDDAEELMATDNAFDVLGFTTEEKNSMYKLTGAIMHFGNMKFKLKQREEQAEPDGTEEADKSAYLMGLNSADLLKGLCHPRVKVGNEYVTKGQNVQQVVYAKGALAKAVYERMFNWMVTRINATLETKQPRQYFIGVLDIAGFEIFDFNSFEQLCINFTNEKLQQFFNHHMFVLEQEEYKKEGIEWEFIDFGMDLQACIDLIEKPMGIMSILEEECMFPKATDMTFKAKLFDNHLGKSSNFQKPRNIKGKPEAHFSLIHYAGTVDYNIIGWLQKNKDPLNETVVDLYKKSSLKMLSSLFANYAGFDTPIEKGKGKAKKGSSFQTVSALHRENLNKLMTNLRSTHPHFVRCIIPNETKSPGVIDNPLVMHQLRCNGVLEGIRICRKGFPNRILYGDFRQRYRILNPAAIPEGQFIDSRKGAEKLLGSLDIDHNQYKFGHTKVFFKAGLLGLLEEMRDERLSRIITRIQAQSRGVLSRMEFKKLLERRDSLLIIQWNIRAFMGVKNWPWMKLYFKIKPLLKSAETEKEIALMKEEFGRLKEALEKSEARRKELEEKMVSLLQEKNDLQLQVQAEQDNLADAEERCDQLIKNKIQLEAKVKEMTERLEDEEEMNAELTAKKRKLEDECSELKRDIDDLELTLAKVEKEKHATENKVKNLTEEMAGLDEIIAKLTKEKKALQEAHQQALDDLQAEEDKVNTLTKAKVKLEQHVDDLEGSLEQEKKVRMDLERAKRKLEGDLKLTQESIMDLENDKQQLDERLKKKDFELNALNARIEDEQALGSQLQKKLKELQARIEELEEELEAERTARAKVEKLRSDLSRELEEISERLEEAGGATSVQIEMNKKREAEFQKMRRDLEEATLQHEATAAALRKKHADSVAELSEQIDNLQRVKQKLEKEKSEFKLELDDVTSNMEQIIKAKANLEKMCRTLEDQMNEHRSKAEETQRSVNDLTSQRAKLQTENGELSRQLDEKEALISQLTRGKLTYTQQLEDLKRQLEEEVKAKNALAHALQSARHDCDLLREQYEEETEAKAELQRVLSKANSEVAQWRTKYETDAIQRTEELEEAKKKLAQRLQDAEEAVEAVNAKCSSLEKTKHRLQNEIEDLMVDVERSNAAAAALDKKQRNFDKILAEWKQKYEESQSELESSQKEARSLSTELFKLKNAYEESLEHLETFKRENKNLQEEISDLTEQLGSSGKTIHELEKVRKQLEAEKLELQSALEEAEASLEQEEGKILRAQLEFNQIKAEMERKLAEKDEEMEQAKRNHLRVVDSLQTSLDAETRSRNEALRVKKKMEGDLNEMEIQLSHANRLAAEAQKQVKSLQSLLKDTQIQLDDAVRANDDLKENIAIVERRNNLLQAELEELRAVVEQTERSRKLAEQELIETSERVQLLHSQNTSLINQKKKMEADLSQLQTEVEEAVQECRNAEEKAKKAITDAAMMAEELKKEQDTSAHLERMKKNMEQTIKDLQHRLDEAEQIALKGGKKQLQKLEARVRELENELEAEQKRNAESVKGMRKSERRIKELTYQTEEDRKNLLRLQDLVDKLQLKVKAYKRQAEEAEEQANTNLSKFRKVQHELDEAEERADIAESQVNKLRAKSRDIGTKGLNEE
Chain of bovine cardiac myofibrils (full-length cardiac myosin ATPase in the native sarcomere) (P85100 whole entry partner): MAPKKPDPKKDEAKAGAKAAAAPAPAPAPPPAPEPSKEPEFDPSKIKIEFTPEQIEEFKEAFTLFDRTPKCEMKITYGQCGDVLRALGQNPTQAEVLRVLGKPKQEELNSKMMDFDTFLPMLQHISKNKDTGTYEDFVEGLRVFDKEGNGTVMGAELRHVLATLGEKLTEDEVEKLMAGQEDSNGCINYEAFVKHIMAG
Chain of bovine cardiac myofibrils (full-length cardiac myosin ATPase in the native sarcomere) (Q3SZE5 whole entry partner): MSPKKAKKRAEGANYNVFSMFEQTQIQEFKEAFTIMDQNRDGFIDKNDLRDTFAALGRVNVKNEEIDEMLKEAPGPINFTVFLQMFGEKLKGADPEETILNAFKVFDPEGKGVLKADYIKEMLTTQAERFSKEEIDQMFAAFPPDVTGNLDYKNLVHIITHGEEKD

Broadly, the IC50 is the concentration needed to halve the response being measured. Consider `CCc1nc(-c2ccc3c(c2)CC[C@H]3NC(=O)c2cnn(CC3COC3)c2)no1` [Compound 506, (R)-N-(5-(5-ethyl-1,2,4-oxadiazol-3-yl)-2,3-dihydro-1H-inden-1-yl)-1-(oxetan-3-ylmethyl)-1H-pyrazole-4-carboxamide], for which the “CDMF75 IC15” value stood at 4.5 µM and the concentration for half-maximal inhibition (IC50) is 20 µM.

For `Cc1nc(-c2ccc3c(c2)CCC3NC(=O)c2cnn3c2CCC3)no1` (stereo not shown) [Compound 57, N-(5-(5-methyl-1,2,4-oxadiazol-3-yl)-2,3-dihydro-1H-inden-1-yl)-5,6-dihydro-4H-pyrrolo[1,2-b]pyrazole-3-carboxamide], the “CDMF75 IC15” value worked out at 2.8 µM and the IC50 was determined as 8.9 µM.

On to `Cn1cc(C(=O)N[C@@H]2CCc3cc(-c4noc(C(F)F)n4)ccc32)cn1` [Compound 186, (R)-N-(5-(5-(difluoromethyl)-1,2,4-oxadiazol-3-yl)-2,3-dihydro-1H-inden-1-yl)-1-methyl-1H-pyrazole-4-carboxamide], for which the “CDMF75 IC15” value was 0.7 µM and the IC50 turned out to be 2.4 µM.

On to `Cc1noc(-c2ccc3c(c2)OC[C@H]3NC(=O)c2ccnn2C)n1` [Compound 314, (S)-1-methyl-N-(6-(3-methyl-1,2,4-oxadiazol-5-yl)-2,3-dihydrobenzofuran-3-yl)-1H-pyrazole-5-carboxamide], for which the “CDMF75 IC15” value was 0.7 µM and the IC50 turned out to be 2.4 µM.

For the molecule `CCc1nc(-c2ccc3c(c2)OC[C@H]3NC(=O)c2cc(C)nn2C)no1` [Compound 231, (S)-N-(6-(5-ethyl-1,2,4-oxadiazol-3-yl)-2,3-dihydrobenzofuran-3-yl)-1,3-dimethyl-1H-pyrazole-5-carboxamide], the “CDMF75 IC15” value came out at 0.3 µM and the half-maximal inhibitory concentration (IC50) stood at 1 µM.

With `O=C1CC[C@H](C(=O)N[C@@H]2CCc3cc(-c4noc(C5CC5)n4)ccc32)N1` [Compound 336, (R)-N-((R)-5-(5-cyclopropyl-1,2,4-oxadiazol-3-yl)-2,3-dihydro-1H-inden-1-yl)-5-oxopyrrolidine-2-carboxamide], the “CDMF75 IC15” value is 30.9 µM and the IC50 was more than 39.2 µM.

Consider `Cc1cc(C(=O)NC2CCc3cc(-c4nc(C)no4)ccc32)ccn1` (stereo not shown) [Compound 130, 2-methyl-N-(5-(3-methyl-1,2,4-oxadiazol-5-yl)-2,3-dihydro-1H-inden-1-yl)isonicotinamide], for which the “CDMF75 IC15” value turned out to be 2.5 µM and the IC50 turned out to be 10.3 µM.

With `CCc1nc(-c2ccc3c(c2)OCC3NC(=O)c2ccnn2C)no1` (stereo not shown) [Compound 229, N-(6-(5-ethyl-1,2,4-oxadiazol-3-yl)-2,3-dihydrobenzofuran-3-yl)-1-methyl-1H-pyrazole-5-carboxamide], the “CDMF75 IC15” value stood at 0.5 µM and the IC50 amounted to 1.4 µM.

Regarding `[2H]C([2H])([2H])c1nc(-c2ccc3c(c2)CC[C@H]3NC(=O)c2ccnc(C)c2)no1` [Compound 245, (R)-2-methyl-N-(5-(5-(methyl-d3)-1,2,4-oxadiazol-3-yl)-2,3-dihydro-1H-inden-1-yl)isonicotinamide], the “CDMF75 IC15” value was determined as 1.0 µM and the IC50 came out at 3.4 µM.

For the molecule `Cc1cc(C(=O)NC2COc3cc(-c4noc(C)n4)ccc32)ccn1` (stereo not shown) [Compound 18, 2-methyl-N-(6-(5-methyl-1,2,4-oxadiazol-3-yl)-2,3-dihydrobenzofuran-3-yl)isonicotinamide], the “CDMF75 IC15” value was 1.1 µM and the IC50 was 6.8 µM.

In the case of `Cc1cccc(-c2ccc3c(c2)CC[C@H]3NC(=O)c2ccnn2C)n1` [Compound 377, (R)-1-methyl-N-(5-(6-methylpyridin-2-yl)-2,3-dihydro-1H-inden-1-yl)-1H-pyrazole-5-carboxamide], the “CDMF75 IC15” value was 4.5 µM and the IC50 was 17.8 µM.

For `Cc1nocc1C(=O)N[C@@H]1CCc2cc(-c3noc(C(F)F)n3)ccc21` [Compound 677, (R)-N-(5-(5-(difluoromethyl)-1,2,4-oxadiazol-3-yl)-2,3-dihydro-1H-inden-1-yl)-3-methylisoxazole-4-carboxamide], the “CDMF75 IC15” value turned out to be 0.3 µM and the half-maximal inhibitory concentration (IC50) was found to be 0.9 µM.

With `Cc1nc(-c2ccc3c(c2)CCC3NC(=O)c2ncnn2C)no1` (stereo not shown) [Compound 120, 1-methyl-N-(5-(5-methyl-1,2,4-oxadiazol-3-yl)-2,3-dihydro-1H-inden-1-yl)-1H-1,2,4-triazole-5-carboxamide], the “CDMF75 IC15” value amounted to 2.4 µM and the IC50 worked out at 9.8 µM.

For the molecule `CCc1nc(-c2ccc3c(c2)CC[C@H]3NC(=O)c2ccon2)no1` [Compound 585, (R)-N-(5-(5-ethyl-1,2,4-oxadiazol-3-yl)-2,3-dihydro-1H-inden-1-yl)isoxazole-3-carboxamide], the “CDMF75 IC15” value came out at 0.5 µM and the IC50 was found to be 2.5 µM.

For `COCc1nc(-c2ccc3c(c2)OC[C@H]3NC(=O)c2cccc(CO)c2)no1` [Compound 712, (S)-3-(hydroxymethyl)-N-(6-(5-(methoxymethyl)-1,2,4-oxadiazol-3-yl)-2,3-dihydrobenzofuran-3-yl)benzamide], the “CDMF75 IC15” value was 0.5 µM and the IC50 was 2.4 µM.

With `Cc1nn(C)cc1C(=O)NC1CCc2cc(-c3noc([C@H](C)O)n3)ccc21` (stereo partly drawn) [Compound 80, N-(5-(5-((S)-1-hydroxyethyl)-1,2,4-oxadiazol-3-yl)-2,3-dihydro-1H-inden-1-yl)-1,3-dimethyl-1H-pyrazole-4-carboxamide], the “CDMF75 IC15” value amounted to 27.5 µM and the IC50 is more than 39.2 µM.

`Cc1cc(C(=O)N[C@@H]2CCc3cc(-c4nc(C(F)F)no4)ccc32)n(C)n1` [Compound 213, (R)-N-(5-(3-(difluoromethyl)-1,2,4-oxadiazol-5-yl)-2,3-dihydro-1H-inden-1-yl)-1,3-dimethyl-1H-pyrazole-5-carboxamide]: the “CDMF75 IC15” value is 1.2 µM and the half-maximal inhibitory concentration (IC50) came out at 4.7 µM.

On to `Cc1cc(C(=O)N[C@@H]2CCc3cc(-c4nc(C)co4)ccc32)ccn1` [Compound 172, (R)-2-methyl-N-(5-(4-methyloxazol-2-yl)-2,3-dihydro-1H-inden-1-yl)isonicotinamide], for which the “CDMF75 IC15” value was determined as 8.1 µM and the IC50 is more than 39.2 µM.

Turning to `Cc1cnnc(-c2ccc3c(c2)CC[C@H]3NC(=O)c2ccnn2C)c1` [Compound 383, (R)-1-methyl-N-(5-(5-methylpyridazin-3-yl)-2,3-dihydro-1H-inden-1-yl)-1H-pyrazole-5-carboxamide], the “CDMF75 IC15” value is 3.4 µM and the IC50 is 11.6 µM.

Take `Cc1nc(-c2ccc3c(c2)CCC3NC(=O)c2nnn(C)n2)no1` (stereo not shown) [Compound 64, 2-methyl-N-(5-(5-methyl-1,2,4-oxadiazol-3-yl)-2,3-dihydro-1H-inden-1-yl)-2H-tetrazole-5-carboxamide]: the “CDMF75 IC15” value came out at 1.2 µM and the half-maximal inhibitory concentration (IC50) is 5.1 µM.

On to `Cc1nn(CCO)cc1C(=O)N[C@@H]1CCc2cc(-c3noc(C(F)F)n3)ccc21` [Compound 686, (R)-N-(5-(5-(difluoromethyl)-1,2,4-oxadiazol-3-yl)-2,3-dihydro-1H-inden-1-yl)-1-(2-hydroxyethyl)-3-methyl-1H-pyrazole-4-carboxamide], for which the “CDMF75 IC15” value is 0.9 µM and the concentration for half-maximal inhibition (IC50) was determined as 3.1 µM.

With `Cc1cc(C(=O)N[C@@H]2COc3cc(-c4noc(C(F)F)n4)cnc32)ccn1` [Compound 196, (S)—N-(6-(5-(difluoromethyl)-1,2,4-oxadiazol-3-yl)-2,3-dihydrofuro[3,2-b]pyridin-3-yl)-2-methylisonicotinamide], the “CDMF75 IC15” value stood at 4.5 µM and the IC50 was 17.4 µM.

On to `CCc1nc(-c2ccc3c(c2)CC[C@H]3NC(=O)c2cnn(C[C@H](O)CO)c2)no1` [Compound 540, N-[(1R)-5-(5-ethyl(1,2,4-oxadiazol-3-yl))indanyl][1-((2S)-2,3-dihydroxypropyl)pyrazol-4-yl]carboxamide], for which the “CDMF75 IC15” value was found to be 0.7 µM and the IC50 was 2.9 µM.

As to `CCc1nc(-c2ccc3c(c2)CC[C@H]3NC(=O)c2cnn(C)c2C)no1` [Compound 571, (R)-N-(5-(5-ethyl-1,2,4-oxadiazol-3-yl)-2,3-dihydro-1H-inden-1-yl)-1,5-dimethyl-1H-pyrazole-4-carboxamide], the “CDMF75 IC15” value came to 0.4 µM and the concentration for half-maximal inhibition (IC50) came out at 1.3 µM.

In the case of `COCc1nc(-c2ccc3c(c2)OC[C@H]3NC(=O)c2ccnn2C)no1` [Compound 224, (S)-N-(6-(5-(methoxymethyl)-1,2,4-oxadiazol-3-yl)-2,3-dihydrobenzofuran-3-yl)-1-methyl-1H-pyrazole-5-carboxamide], the “CDMF75 IC15” value stood at 0.6 µM and the IC50 is 2.1 µM.

Take `Cc1nc(-c2ccc3c(c2)CCC3NC(=O)c2ocnc2C)no1` (stereo not shown) [Compound 51, 4-methyl-N-(5-(5-methyl-1,2,4-oxadiazol-3-yl)-2,3-dihydro-1H-inden-1-yl)oxazole-5-carboxamide]: the “CDMF75 IC15” value worked out at 1.2 µM and the half-maximal inhibitory concentration (IC50) was found to be 3.6 µM.

Turning to `Cc1cc(-c2ccc3c(c2)CC[C@H]3NC(=O)c2ocnc2C)no1` [Compound 418, (R)-4-methyl-N-(5-(5-methylisoxazol-3-yl)-2,3-dihydro-1H-inden-1-yl)oxazole-5-carboxamide], the “CDMF75 IC15” value worked out at 0.3 µM and the half-maximal inhibitory concentration (IC50) turned out to be 1.2 µM.

Regarding `Cc1nc(-c2ccc3c(c2)CCC3NC(=O)c2ccnc(N)c2)no1` (stereo not shown) [Compound 33, 2-amino-N-(5-(5-methyl-1,2,4-oxadiazol-3-yl)-2,3-dihydro-1H-inden-1-yl)isonicotinamide], the “CDMF75 IC15” value worked out at 1.3 µM and the IC50 came out at 4.3 µM.

Turning to `O=C(N[C@@H]1CCc2cc(-c3noc(C(F)F)n3)ccc21)N1CCOCC1` [Compound 301, (R)-N-(5-(5-(difluoromethyl)-1,2,4-oxadiazol-3-yl)-2,3-dihydro-1H-inden-1-yl)morpholine-4-carboxamide], the “CDMF75 IC15” value was found to be 9.5 µM and the IC50 was more than 39.2 µM.
